Reference: patent US5302398A, “Gastroresistant pharmaceutical formulations for oral administration containing salts of bile acids” (Alfa Wassermann S.p.A., priority 1991, dated 1994)
Where a name gives a salt, the structure may show the parent alone.

How the values were obtained:
[1] = pH of 1% (w/v) aqueous solution of the salt; assay type: physicochemical; settings: 1% (w/v) in water
Description: The sodium and potassium salts of the ursodeoxycholic acid, whose 1% (w/v) aqueous solutions show pH values respectively equal to 7.80 and 7.90, are prepared in a similar manner.
20 Ml of a 0.5 M aqueous solution (10 mmoles) of 1-(2-hydroxyethyl)pyrrolidine are added under stirring to a suspension containing 3.92 g (10 mmoles) of ursodeoxycholic acid in 50 ml of water prolonging the stirring until complete solubilization. The obtained solution is then freeze-dried obtaining with quantitative yield a white powder corresponding to the salt in object.
The N-methyl-D-glucamine and L-arginine salts of the ursodeoxycholic acid, whose 1% (w/v) aqueous solutions show pH values respectively equal to 8.06 and 7.75, are prepared in a similar manner.
10 Ml of a 1 M aqueous solution (10 mmoles) of choline bicarbonate are added under stirring to a suspension containing 3.92 g (10 mmoles) of ursodeoxycholic acid in 50 ml of water prolonging the stirring until complete solubilization.

[2] = intestinal bacterial flora; pH lower than 8.4; cited from earlier work

Structure (SMILES) | pH value of a 1% (w/v) aqueous solution [1] | biotransformation of the unabsorbed portion [2]
C[C@H](CCC(=O)O)[C@H]1CC[C@H]2[C@@H]3[C@@H](O)C[C@@H]4C[C@H](O)CC[C@]4(C)[C@H]3CC[C@]12C [Example 3, CHOLINE SALT OF THE URSODEOXYCHOLIC ACID] | 7.40 | 
C[C@H](CCC(=O)O)[C@H]1CC[C@H]2[C@@H]3[C@@H](O)C[C@@H]4C[C@H](O)CC[C@]4(C)[C@H]3CC[C@]12C [potassium salt of the ursodeoxycholic acid] | 7.90 | 
C[C@H](CCC(=O)O)[C@H]1CC[C@H]2[C@@H]3[C@@H](O)C[C@@H]4C[C@H](O)CC[C@]4(C)[C@H]3CC[C@]12C [Example 2, 1-(2-HYDROXYETHYL)PYRROLIDINE SALT OF THE URSODEOXYCHOLIC ACID] | 7.90 | 
C[C@H](CCC(=O)O)[C@H]1CC[C@H]2[C@@H]3[C@@H](O)C[C@@H]4C[C@H](O)CC[C@]4(C)[C@H]3CC[C@]12C [Example 1, LITHIUM SALT OF THE URSODEOXYCHOLIC ACID] | 8.13 | 
C[C@H](CCC(=O)O)[C@H]1CC[C@H]2[C@@H]3[C@@H](O)C[C@@H]4C[C@H](O)CC[C@]4(C)[C@H]3CC[C@]12C [N-methyl-D-glucamine salt of the ursodeoxycholic acid] | 8.06 | 
C[C@H](CCC(=O)O)[C@H]1CC[C@H]2[C@@H]3[C@@H](O)C[C@@H]4C[C@H](O)CC[C@]4(C)[C@H]3CC[C@]12C [sodium salt of the ursodeoxycholic acid] | 7.80 | 
C[C@H](CCC(=O)O)[C@H]1CC[C@H]2[C@@H]3[C@@H](O)C[C@@H]4C[C@H](O)CC[C@]4(C)[C@H]3CC[C@]12C [ursodeoxycholic acid] |  | undergoes a biotransformation to litocholic acid
C[C@H](CCC(=O)O)[C@H]1CC[C@H]2[C@@H]3[C@@H](O)C[C@@H]4C[C@H](O)CC[C@]4(C)[C@H]3CC[C@]12C [L-arginine salt of the ursodeoxycholic acid] | 7.75 | 
